What was measured:
BIR3 domain of XIAP = BIR3 domain of XIAP (Homo sapiens (Human), UniProt P98170); assay: TR-FRET assay for BIR3: inhibition of binding of XIAP BIR3 domain to Peptide A (SMAC-derived peptide)
BIR2 domain of XIAP = BIR2 domain of XIAP (Homo sapiens (Human), UniProt P98170, C202A/C213G); assay: TR-FRET assay for BIR2: inhibition of binding of XIAP BIR2 domain to Peptide A (SMAC-derived peptide);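 further: percent inhibition measured across a concentration series of each compound, from which the IC50 was derived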
BIR2 domain of XIAP, sequence (P98170 other isoform, or with tags, fused parts or gaps, stated change not applied): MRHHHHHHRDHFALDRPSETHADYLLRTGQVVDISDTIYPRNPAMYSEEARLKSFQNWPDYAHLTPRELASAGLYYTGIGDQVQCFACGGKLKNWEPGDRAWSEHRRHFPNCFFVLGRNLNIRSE
Description: TR-FRET Assay for BIR2 and BIR3
The peptides were labeled with the fluorescent tags FITC or TAMRA and Kd values were determined by fluorescence polarization assay.
The peptide sequence was derivatized with biotin to provide [sequence]-(8-biotin)-OH 1:2 TFA as the substrate for the TR-FRET assay.
The XIAP protein sequence was obtained from the SWISS-PROT protein sequence database and the BIR2 and BIR3 domains were derived from that.
Percentage of inhibition at each concentration was determined to generate an IC50 value for each test compound.

BIR3 domain of XIAP, sequence (P98170 241-356 with tags or gaps limits assumed): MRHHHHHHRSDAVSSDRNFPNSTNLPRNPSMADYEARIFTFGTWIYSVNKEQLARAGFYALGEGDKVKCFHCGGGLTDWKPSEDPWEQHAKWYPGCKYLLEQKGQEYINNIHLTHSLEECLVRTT

IC50 (BIR3 domain of XIAP): > 54800 nM
IC50 (BIR2 domain of XIAP): 373 nM
SMILES: CN[C@@H](C)C(=O)N[C@H]1CSc2c(NC(=O)C3CCN(C(C)=O)CC3)cccc2N(Cc2cccc3ccccc23)C1=O [Example 23, 1-Acetyl-piperidine-4-carboxylic acid [(R)-3-((S)-2-methylamino-propionylamino)-5-naphthalen-1-ylmethyl-4-oxo-2,3,4,5-tetrahydro-benzo[b][1,4]thiazepin-9-yl]-amide]
